Patent publication US6914045B2, “Glycopeptide antibiotics” (Wyeth Holdings Corporation, priority 2001, dated 2005)
Values after ≈ are worked out from the molar mass of the structure shown.

Columns and labels:
[1] = tested on: Staphylococcus sp.; assay: in vitro antibacterial evaluation, MIC by broth dilution; type: cell-based; details: broth dilution, 18 hours at 35° C.
Summary of the method: (§1)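 Step 1: dilute antibiotic across 64-0.06 μg/mL in Muller-Hinton II […]. Step 2: inoculate at 5×10^5 CFU/mL.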

[2] = tested on: Streptococcus sp.; assay: as above; type: cell-based; details: broth dilution, 18 hours at 35° C.
Summary of the method: as §1

[3] = tested on: Enterococcus sp.; assay: as above; type: cell-based; details: broth dilution, 18 hours at 35° C.
Summary of the method: as §1

[4] = anatomic pathology (histopathology of heart and kidney) in mice; type: in vivo; details: CD-1 mice, 20 mg/kg intravenously daily for 9 days, necropsy day 10, microscopic histopathology
Method: Samples of tissues from necropsied mice were formalin-fixed, paraffin-embedded, sectioned, stained with hematoxylin and eosin, and examined microscopically. Histopathologic findings were recorded. These findings were subjectively graded on a scale corresponding to slight, mild, moderate, marked and severe as compared to untreated controls.

[5] = tested on: Staphylococcus aureus-SMITH (GC 4543); assay: acute lethal infection in mice; type: in vivo; details: acute lethal infection, female CD-1 mice, intraperitoneal challenge, intravenous 30 min. after infection, 7 day survival
Summary of the method: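 Female CD-1 mice (20+/−2 gm) were infected intraperitoneally with enough bacteria, suspended in trypticase soy broth or hog gastric mucin, to kill untreated controls within 24-48 hr. Compound in saline or 5% dextrose was given intravenously 30 min post-infection, five mice per dose. ED50 came from pooled 7 day survival of 3 tests.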

[6] = tested on: Escherichia coli; assay: in vitro antibacterial evaluation, MIC by broth dilution; type: cell-based; details: 18 hours at 35° C.
[7] = clinical pathology (serum clinical chemistry) in mice; type: in vivo; details: CD-1 mice, 20 mg/kg intravenously daily for 9 days, sera day 10
Method: 20-day-old CD-1 mice were divided into a vehicle control group (5 mice) and a treatment group (5 mice). Samples of glycopeptide antibiotics were administered at 20 mg/kg intravenously daily for 9 days.

With `COc1ccc2cc(COC3C(CO)OC(OC4C(CO)OC(Oc5ccc(CC6NC(=O)C(C(C)c7ccccc7)NC(=O)CNC(=O)C(CO)NC(=O)C(CC7CNC(=N)N7C7OC(CO)C(O)C(O)C7O)NC(=O)C(CC7CNC(=N)N7)NC6=O)cc5)C(O)C4O)C(O)C3O)ccc2c1` (stereo not drawn) [Example 245a, Cyclo[3-(2-iminoimidazolidin-4-yl)alanyl-3-(3-hexopyranosyl-2-iminoimidazolidin-4-yl)-alanylserylglycyl-β-methylphenylalanyl-O-[4-O-[4-O-[(6-methoxy-2-naphthyl)methyl]-hexopyranosyl]hexopyranosyl]tyrosyl]] the “MIC Coagulase Negative Staphylococcus (GC 4547)” value [1] was 2 µg/mL (≈ 1.4 µM), the “MIC Coagulase Negative Staphylococcus (GC 4548)” value [1] was 1 µg/mL (≈ 0.698 µM) and the “MIC Coagulase Negative Staphylococcus (GC 4549)” value [1] was 0.5 µg/mL (≈ 0.349 µM). The “MIC Coagulase Negative Staphylococcus (GC 4551)” value [1] was 2 µg/mL (≈ 1.4 µM), the “MIC Coagulase Negative Staphylococcus (GC 6257)” value [1] was 1 µg/mL (≈ 0.698 µM) and the “MIC Staphylococcus aureus (ATCC 29213)” value [1] was 2 µg/mL (≈ 1.4 µM). For the same compound, the “MIC Staphylococcus aureus (GC 1131)” value [1] was 4 µg/mL (≈ 2.79 µM), the “MIC Staphylococcus aureus (GC 3051)” value [1] was 2 µg/mL (≈ 1.4 µM) and the “MIC Staphylococcus aureus (GC 3053)” value [1] was 2 µg/mL (≈ 1.4 µM). For the same compound, the “MIC Staphylococcus aureus (GC 4541)” value [1] was 2 µg/mL (≈ 1.4 µM), the “MIC Staphylococcus aureus (GC 4542)” value [1] was 2 µg/mL (≈ 1.4 µM) and the “MIC Staphylococcus aureus (GC 4544)” value [1] was 2 µg/mL (≈ 1.4 µM). The “MIC Staphylococcus aureus (GC 4545)” value [1] was 2 µg/mL (≈ 1.4 µM), the “MIC Staphylococcus aureus-SMITH (GC 4543)” value [1] was 2 µg/mL (≈ 1.4 µM) and the “MIC Staphylococcus haemolyticus (GC 4546)” value [1] was 1 µg/mL (≈ 0.698 µM). The “MIC Staphylococcus aureus (ATCC 29213)” value ([1]; strain ATCC 29213) was 2 µg/mL (≈ 1.4 µM), the “MIC Staphylococcus aureus (GC 1131)” value ([1]; strain GC 1131) was 4 µg/mL (≈ 2.79 µM) and the “MIC Staphylococcus aureus (GC 3051)” value ([1]; strain GC 3051) was 2 µg/mL (≈ 1.4 µM). The “MIC Staphylococcus aureus (GC 3053)” value ([1]; strain GC 3053) was 2 µg/mL (≈ 1.4 µM), the “MIC Staphylococcus aureus (GC 4541)” value ([1]; strain GC 4541) was 2 µg/mL (≈ 1.4 µM) and the “MIC Staphylococcus aureus (GC 4542)” value ([1]; strain GC 4542) was 2 µg/mL (≈ 1.4 µM). The “MIC Staphylococcus aureus-SMITH (GC 4543)” value ([1]; strain GC 4543) was 2 µg/mL (≈ 1.4 µM), the “MIC Staphylococcus aureus (GC 4544)” value ([1]; strain GC 4544) was 2 µg/mL (≈ 1.4 µM) and the “MIC Staphylococcus aureus (GC 4545)” value ([1]; strain GC 4545) was 2 µg/mL (≈ 1.4 µM). For the same compound, the “MIC Staphylococcus haemolyticus (GC 4546)” value ([1]; strain GC 4546) was 1 µg/mL (≈ 0.698 µM), the “MIC Coagulase Negative Staphylococcus (GC 4547)” value ([1]; strain GC 4547) was 2 µg/mL (≈ 1.4 µM) and the “MIC Coagulase Negative Staphylococcus (GC 4548)” value ([1]; strain GC 4548) was 1 µg/mL (≈ 0.698 µM). For the same compound, the “MIC Coagulase Negative Staphylococcus (GC 4549)” value ([1]; strain GC 4549) was 0.5 µg/mL (≈ 0.349 µM), the “MIC Coagulase Negative Staphylococcus (GC 4551)” value ([1]; strain GC 4551) was 2 µg/mL (≈ 1.4 µM) and the “MIC Coagulase Negative Staphylococcus (GC 6257)” value ([1]; strain GC 6257) was 1 µg/mL (≈ 0.698 µM). For the same compound, the “MIC Streptococcus agalactiae (GC 4564)” value [2] was 1 µg/mL (≈ 0.698 µM), the “MIC Streptococcus pneumoniae (ATCC 6301)” value [2] was 0.5 µg/mL (≈ 0.349 µM) and the “MIC Streptococcus pneumoniae (GC 1894)” value [2] was <0.12 µg/mL. For the same compound, the “MIC Streptococcus pneumoniae (GC 4565)” value [2] was 1 µg/mL (≈ 0.698 µM), the “MIC Streptococcus pyogenes (GC 4563)” value [2] was 1 µg/mL (≈ 0.698 µM) and the “MIC Streptococcus pneumoniae (ATCC 6301)” value ([2]; inoculum 5×10^5 CFU/mL, strain ATCC 6301) was 0.5 µg/mL (≈ 0.349 µM). For the same compound, the “MIC Streptococcus pneumoniae (GC 1894)” value ([2]; inoculum 5×10^5 CFU/mL, strain GC 1894) was <0.12 µg/mL, the “MIC Streptococcus pyogenes (GC 4563)” value ([2]; inoculum 5×10^5 CFU/mL, strain GC 4563) was 1 µg/mL (≈ 0.698 µM) and the “MIC Streptococcus agalactiae (GC 4564)” value ([2]; inoculum 5×10^5 CFU/mL, strain GC 4564) was 1 µg/mL (≈ 0.698 µM). For the same compound, the “MIC Streptococcus pneumoniae (GC 4565)” value ([2]; inoculum 5×10^5 CFU/mL, strain GC 4565) was 1 µg/mL (≈ 0.698 µM), the “MIC Enterococcus avium (GC 4558)” value [3] was 4 µg/mL (≈ 2.79 µM) and the “MIC Enterococcus faecalis (ATCC 29212)” value [3] was 8 µg/mL (≈ 5.58 µM). For the same compound, the “MIC Enterococcus faecalis (GC 2242)” value [3] was 4 µg/mL (≈ 2.79 µM), the “MIC Enterococcus faecalis (GC 2691)” value [3] was 8 µg/mL (≈ 5.58 µM) and the “MIC Enterococcus faecalis (GC 3059)” value [3] was 4 µg/mL (≈ 2.79 µM). For the same compound, the “MIC Enterococcus faecalis (GC 4552)” value [3] was 8 µg/mL (≈ 5.58 µM), the “MIC Enterococcus faecalis (GC 4553)” value [3] was 4 µg/mL (≈ 2.79 µM) and the “MIC Enterococcus faecalis (GC 4554)” value [3] was 8 µg/mL (≈ 5.58 µM). The “MIC Enterococcus faecalis (GC 6189)” value [3] was 8 µg/mL (≈ 5.58 µM), the “MIC Enterococcus faecium (GC 2243)” value [3] was 4 µg/mL (≈ 2.79 µM) and the “MIC Enterococcus faecium (GC 4556)” value [3] was 4 µg/mL (≈ 2.79 µM). The “MIC Enterococcus faecium (GC 4557)” value [3] was 2 µg/mL (≈ 1.4 µM), the “MIC Enterococcus faecalis (ATCC 29212)” value ([3]; strain ATCC 29212) was 8 µg/mL (≈ 5.58 µM) and the “MIC Enterococcus faecium (GC 2243)” value ([3]; strain GC 2243) was 4 µg/mL (≈ 2.79 µM). The “MIC Enterococcus faecalis (GC 4552)” value ([3]; strain GC 4552) was 8 µg/mL (≈ 5.58 µM), the “MIC Enterococcus faecalis (GC 4553)” value ([3]; strain GC 4553) was 4 µg/mL (≈ 2.79 µM) and the “MIC Enterococcus faecalis (GC 4554)” value ([3]; strain GC 4554) was 8 µg/mL (≈ 5.58 µM). For the same compound, the “MIC Enterococcus faecium (GC 4556)” value ([3]; strain GC 4556) was 4 µg/mL (≈ 2.79 µM), the “MIC Enterococcus faecium (GC 4557)” value ([3]; strain GC 4557) was 2 µg/mL (≈ 1.4 µM) and the “MIC Enterococcus avium (GC 4558)” value ([3]; strain GC 4558) was 4 µg/mL (≈ 2.79 µM). For the same compound, the “MIC Enterococcus faecalis (GC 6189)” value ([3]; strain GC 6189) was 8 µg/mL (≈ 5.58 µM), the “MIC Enterococcus faecalis (GC 2242)” value ([3]; inoculum 5×10^5 CFU/mL, strain GC 2242) was 4 µg/mL (≈ 2.79 µM) and the “MIC Enterococcus faecalis (GC 2691)” value ([3]; inoculum 5×10^5 CFU/mL, strain GC 2691) was 8 µg/mL (≈ 5.58 µM). For the same compound, the “MIC Enterococcus faecalis (GC 3059)” value ([3]; inoculum 5×10^5 CFU/mL, strain GC 3059) was 4 µg/mL (≈ 2.79 µM), the “Anatomical Pathology (Day 10), Heart” value [4] was “+” and the “Anatomical Pathology (Day 10), Kidney” value [4] was “+++”. For the same compound, the median effective dose (ED50), Staphylococcus aureus-SMITH (GC 4543) [5] was 1 mg/kg, the “MIC Escherichia coli (ATCC 25922)” value [6] was 32 µg/mL (≈ 22.3 µM) and the “MIC Escherichia coli (GC 4559)” value [6] was 32 µg/mL (≈ 22.3 µM). The “MIC Escherichia coli (GC 4560)” value [6] was 2 µg/mL (≈ 1.4 µM), the “Clinical Chemistry (Day 10) % of Control, BUN” value [7] was “+212%” and the “Clinical Chemistry (Day 10) % of Control, Creatinine” value [7] was “+133%”.
